Measured values as given in PMC6896172, “Successful Targeting of the Warburg Effect in Prostate Cancer by Glucose-Conjugated 1,4-Naphthoquinones” (Cancers, 2019).

System: 22Rv1 cells
Experiment: Global proteome analysis (LC-MS/MS, DIA) of differentially expressed proteins
Type: cell-based, human
Procedure: 22Rv1 cells were seeded in T75 culture bottles (4 × 10^6 cells/bottle in 20 mL/bottle), treated for 48 h with the 5 µM of compound 11 or vehicle (DMSO), harvested by scratching, washed twice with ice-cold PBS and flash-frozen. Cells were lysed and sonicated. The protein extracts were then heat-denaturated, reduced, alkylated and digested by trypsin. Peptides were chromatographically separated using full recovery autosampler vials and a nano-UPLC system (Acquity, Waters Corporation, Milford, MS, USA), coupled via electrospray ionization (ESI) to a tandem mass spectrometer equipped with a quadrupole and an orbitrap (QExactive, Thermo Fisher Scientific, Bremen, Germany), using MS/MS mode in data dependent acquisition (DDA) and data independent acquisition (DIA). The peptides, analyzed with DDA-LC-MS/MS, were identified with the search engine Sequest, integrated in the Proteome Discoverer software version 2.0 (Thermo Fischer Scientific) using the human Uniprot protein database (EMBL; Hinxton Cambridge, UK, release December 2018). […] For the details of sample preparation and proceeding, data acquisition and analysis see the Supplementary information. […]
serum (FBS, Invitrogen) and 1% penicillin/streptomycin (Invitrogen)). […]
Cell lines were lysed in 100 mM triethylammonium bicarbonate and 1% w/v sodium deoxycholate buffer followed by probe sonication to destroy polynucleotides and heat induce protein denaturing at 99 °C for 5 min. Protein concentrations were estimated with a bicinchonic acid (BCA) protein assay (Thermo Fisher Scientific, Bremen, Germany). 20 µg of protein were reduced in presence of 10 mM dithiotreithol (Sigma Aldrich) for 30 min at 60 °C followed by cysteine alkylation with 20 mM iodo acetamide (Sigma Aldrich) for 30 min at 37 °C in the dark and enzymatic degradation with sequencing grade trypsin (Promega) over night at 37 °C. Digestion was quenched with 1% formic acid (FA), precipitated sodium deoxycholate removed by centrifugation for 5 min at 14,000 g and the supernatant was dried in a vacuum centrifuge.
LC-MS/MS in Data Dependent and Data Independent Mode
Samples were resuspended in 0.1% FA and transferred into a full recovery autosampler vial (Waters). Chromatographic separation was achieved on a nano -UPLC system (Acquity, Waters Corporation, Milford, MS, USA) with a two-buffer-system (buffer A: 0.1% FA in water, buffer B:
0.1% FA in Acetonitrile (ACN), both at pH = 3). Attached to the UPLC was a reversed -phase peptide trapping column (Symmetry C18, 180 µm × 20 mm, 100 Å pore size, 5 µm particle size) for desalting, followed by a reversed-phase capillary separation of the tryptic peptides (BEH C18; 75 µm × 200 mm, 130 Å pore size, 1.7 µm particle size), using a 60 min gradient with increasing ACN concentration from 2–30% ACN. The eluting peptides were analyzed on a quadrupole-orbitrap mass spectrometer (QExactive, Thermo Fisher Scientific, Bremen, Germany) in data dependent acquisition (DDA) and data independent acquisition (DIA) for quantification.
In DDA mode, one replicate of each cell line was randomly chosen and 1 µg per sample was used per LC-MS/MS run to build a reference spectral library used for data extraction of samples acquired in DIA mode. For DDA, the 12 most intense ions per precursor scan (1 × 10 6 ions, 70,000 Resolution, 120 ms fill time) were analyzed by MS/MS (HCD at 25 normalized collision energy, 1 × 105 ions, 17,500 Resolution, 50 ms fill time) in a range of 400–1300 m/z. A dynamic precursor exclusion of 20 s was used. For DIA, 1 µg of each sample was analyzed using a 30 sequential 20 Da fixed window method covering the mass range from 400 –1000 m/z. Per cycle, 2 precursor scans (1 × […]
28 normalized collision energy, 1 × 106 ions, 17,500 Resolution, 50 ms fill time) were performed.
After the first precursor scan, 15 MS/MS scans were performed covering the precursor mass range from 400–700 m/z followed by the second precursor scan and another 15 MS/MS scans ranging from […]
LC-MS/MS Data Processing and Analysis […]

CC1(C)OC2OC(C(O)COC3=CC(=O)c4cccc(O)c4C3=O)C(O)C2O1 (stereo not shown) [Compound 11]
Fold change (treated / control) (protein ARID2_HUMAN (Q68CP9)): 0.5698 | Fold change (treated / control) (protein BAZ1B_HUMAN (Q9UIG0)): 0.5909 | Fold change (treated / control) (protein BCAM_HUMAN (P50895)): 0.2614 | Fold change (treated / control) (protein BRD1_HUMAN (O95696)): 0.5595 | Fold change (treated / control) (protein CBX5_HUMAN (P45973)): 0.6078 | Fold change (treated / control) (protein CCD86_HUMAN (Q9H6F5)): 0.6454 | Fold change (treated / control) (protein CEBPZ_HUMAN (Q03701)): 0.6117 | Fold change (treated / control) (protein CHCH5_HUMAN (Q9BSY4)): 0.3153 | Fold change (treated / control) (protein CISD1_HUMAN (Q9NZ45)): 0.6534 | Fold change (treated / control) (protein CLUS_HUMAN (P10909)): 0.6547 | Fold change (treated / control) (protein CMTD1_HUMAN (Q86VU5)): 0.6695 | Fold change (treated / control) (protein COASY_HUMAN (Q13057)): 0.6716 | Fold change (treated / control) (protein COQ5_HUMAN (Q5HYK3)): 0.6569 | Fold change (treated / control) (protein CPSF7_HUMAN (Q8N684)): 0.5898 | Fold change (treated / control) (protein CRIP2_HUMAN (P52943)): 0.5784 | Fold change (treated / control) (protein CX6B1_HUMAN (P14854)): 0.5635 | Fold change (treated / control) (protein DDX21_HUMAN (Q9NR30)): 0.6203 | Fold change (treated / control) (protein DDX50_HUMAN (Q9BQ39)): 0.5638 | Fold change (treated / control) (protein DDX52_HUMAN (Q9Y2R4)): 0.5706 | Fold change (treated / control) (protein DESP_HUMAN (P15924)): 0.5753 | Fold change (treated / control) (protein DHX30_HUMAN (Q7L2E3)): 0.6273 | Fold change (treated / control) (protein DPOE3_HUMAN (Q9NRF9)): 0.6062 | Fold change (treated / control) (protein E2AK2_HUMAN (P19525)): 0.6134 | Fold change (treated / control) (protein EDF1_HUMAN (O60869)): 0.6154 | Fold change (treated / control) (protein EFTU_HUMAN (P49411)): 0.6185 | Fold change (treated / control) (protein ELOV5_HUMAN (Q9NYP7)): 0.5895 | Fold change (treated / control) (protein FAKD2_HUMAN (Q9NYY8)): 0.6444 | Fold change (treated / control) (protein FKB10_HUMAN (Q96AY3)): 0.625 | Fold change (treated / control) (protein FKBP8_HUMAN (Q14318)): 0.6712 | Fold change (treated / control) (protein GCN1_HUMAN (Q92616)): 0.6676 | Fold change (treated / control) (protein GRSF1_HUMAN (Q12849)): 0.6529 | Fold change (treated / control) (protein H2AY_HUMAN (O75367)): 0.6499 | Fold change (treated / control) (protein HSPB6_HUMAN (O14558)): 0.6349 | Fold change (treated / control) (protein IF4A1_HUMAN (P60842)): 0.6202 | Fold change (treated / control) (protein IMA1_HUMAN (P52292)): 0.5682 | Fold change (treated / control) (protein IQEC2_HUMAN (Q5JU85)): 0.6175 | Fold change (treated / control) (protein K2013_HUMAN (Q8IYS2)): 0.3342 | Fold change (treated / control) (protein LRWD1_HUMAN (Q9UFC0)): 0.5648 | Fold change (treated / control) (protein MAP2_HUMAN (P50579)): 0.6543 | Fold change (treated / control) (protein MCM3_HUMAN (P25205)): 0.6329 | Fold change (treated / control) (protein MCM4_HUMAN (P33991)): 0.5634 | Fold change (treated / control) (protein MCM5_HUMAN (P33992)): 0.5949 | Fold change (treated / control) (protein MCM6_HUMAN (Q14566)): 0.6119 | Fold change (treated / control) (protein MCM7_HUMAN (P33993)): 0.5855 | Fold change (treated / control) (protein MIPEP_HUMAN (Q99797)): 0.6023 | Fold change (treated / control) (protein MTA1_HUMAN (Q13330)): 0.5631 | Fold change (treated / control) (protein MTA2_HUMAN (O94776)): 0.5939 | Fold change (treated / control) (protein MYOME_HUMAN (Q5VU43)): 0.6576 | Fold change (treated / control) (protein NDUA3_HUMAN (O95167)): 0.3195 | Fold change (treated / control) (protein NDUAC_HUMAN (Q9UI09)): 0.6076 | Fold change (treated / control) (protein NDUV1_HUMAN (P49821)): 0.6332 | Fold change (treated / control) (protein NUDC_HUMAN (Q9Y266)): 0.6476 | Fold change (treated / control) (protein P4HTM_HUMAN (Q9NXG6)): 0.3114 | Fold change (treated / control) (protein PCNA_HUMAN (P12004)): 0.6578 | Fold change (treated / control) (protein PDS5A_HUMAN (Q29RF7)): 0.5949 | Fold change (treated / control) (protein PTMA_HUMAN (P06454)): 0.5745 | Fold change (treated / control) (protein RFC2_HUMAN (P35250)): 0.5826 | Fold change (treated / control) (protein RFC3_HUMAN (P40938)): 0.567 | Fold change (treated / control) (protein RFC4_HUMAN (P35249)): 0.5722 | Fold change (treated / control) (protein RFC5_HUMAN (P40937)): 0.6148 | Fold change (treated / control) (protein RL1D1_HUMAN (O76021)): 0.6228 | Fold change (treated / control) (protein RL4_HUMAN (P36578)): 0.563 | Fold change (treated / control) (protein RL10A_HUMAN (P62906)): 0.5923 | Fold change (treated / control) (protein RL13_HUMAN (P26373)): 0.6224 | Fold change (treated / control) (protein RL15_HUMAN (P61313)): 0.6202 | Fold change (treated / control) (protein RL19_HUMAN (P84098)): 0.3072 | Fold change (treated / control) (protein RL23A_HUMAN (P62750)): 0.5699 | Fold change (treated / control) (protein RL23_HUMAN (P62829)): 0.6468 | Fold change (treated / control) (protein RL27A_HUMAN (P46776)): 0.6191 | Fold change (treated / control) (protein RL34_HUMAN (P49207)): 0.2863 | Fold change (treated / control) (protein RL36_HUMAN (Q9Y3U8)): 0.6291 | Fold change (treated / control) (protein RM11_HUMAN (Q9Y3B7)): 0.6501 | Fold change (treated / control) (protein RM45_HUMAN (Q9BRJ2)): 0.6189 | Fold change (treated / control) (protein RM53_HUMAN (Q96EL3)): 0.5657 | Fold change (treated / control) (protein RM54_HUMAN (Q6P161)): 0.6079 | Fold change (treated / control) (protein RPA34_HUMAN (O15446)): 0.6508 | Fold change (treated / control) (protein RPAB5_HUMAN (P62875)): 0.5655 | Fold change (treated / control) (protein RS2_HUMAN (P15880)): 0.6402 | Fold change (treated / control) (protein RS6_HUMAN (P62753)): 0.6108 | Fold change (treated / control) (protein RS9_HUMAN (P46781)): 0.6218 | Fold change (treated / control) (protein S27A3_HUMAN (Q5K4L6)): 0.6711 | Fold change (treated / control) (protein SERC1_HUMAN (Q9NRX5)): 0.3307 | Fold change (treated / control) (protein SIGIR_HUMAN (Q6IA17)): 0.5907 | Fold change (treated / control) (protein SMCA5_HUMAN (O60264)): 0.6602 | Fold change (treated / control) (protein SMRC1_HUMAN (Q92922)): 0.6541 | Fold change (treated / control) (protein SPB1_HUMAN (Q8IY81)): 0.6134 | Fold change (treated / control) (protein STRBP_HUMAN (Q96SI9)): 0.6608 | Fold change (treated / control) (protein SUOX_HUMAN (P51687)): 0.6055 | Fold change (treated / control) (protein TF3C1_HUMAN (Q12789)): 0.6535 | Fold change (treated / control) (protein TF3C5_HUMAN (Q9Y5Q8)): 0.6483 | Fold change (treated / control) (protein TIM8B_HUMAN (Q9Y5J9)): 0.3123 | Fold change (treated / control) (protein UBL5_HUMAN (Q9BZL1)): 0.5618 | Fold change (treated / control) (protein UCRI_HUMAN (P47985)): 0.5774 | Fold change (treated / control) (protein UTP18_HUMAN (Q9Y5J1)): 0.63 | Fold change (treated / control) (protein VIGLN_HUMAN (Q00341)): 0.6343 | Fold change (treated / control) (protein XRN2_HUMAN (Q9H0D6)): 0.664 | Fold change (treated / control) (protein YBOX1_HUMAN (P67809)): 0.6605 | Fold change (treated / control) (protein ZN326_HUMAN (Q5BKZ1)): 0.6081 | Fold change (treated / control) (protein ZN428_HUMAN (Q96B54)): 0.5792 | Fold change (treated / control) (protein ZN595_HUMAN (Q8IYB9)): 0.6231
